According to patent publication US10556879B2, “Retinoid compound, preparation method therefor, intermediates thereof and application thereof” (SHANGHAI INSTITUTE OF ORGANIC CHEMISTRY, CHINESE ACADEMY OF …, priority 2016, dated 2020):
“Also recorded” adds a separate entry of the source. Where two headings read alike, the source gives them in different places.

Tests used:
[1] = system: tumor-repopulating cells of B16-F1 melanoma; experiment: Inhibitory activity on proliferation of tumor-repopulating cells (TRCs) of B16-F1 melanoma in 3D fibrin gel; format: cell-based; settings: Mus musculus
Experimental: B16-F1 Melanoma cells were incubated with 3D fibrin gel medium (90-Pa) for 5 days, and the desired tumor-repopulating cells of melanoma were screened (Nat. Mater. 2012, 11, 734). Subsequently, the culture medium was respectively treated with collagenase and neutral protease II, and the tumor-repopulating cells of B16-F1 melanoma were released, then the obtained repopulating cells were transferred to a freshly prepared medium to be resuspended and maintained at single-cell state. The tumor-repopulating cells of B16-F1 melanoma were inoculated in 3D fibrin gel medium (90-Pa) for 5 days, with 0.1% DMSO as the negative control group, Tazarotene and Bexarotene as the positive control drugs respectively, […] for 5 days. The colony tumor size was measured and calculated, and the inhibition rate of each drug on the tumor-repopulating cells of B16-F1 melanoma was calculated. The results of inhibitory activity of the compound of the present invention on the proliferation of tumor-repopulating cells of B16-F1 melanoma were shown in Table 2 below.

[2] = system: metastatic melanoma in the lung; experiment: Metastatic melanoma in the lung model, 3000 tumor-repopulating cells via tail vein (WYC-103); format: in vivo; settings: blood concentration 10 μM
From the text: A metastatic melanoma model in the mouse was established to study whether WYC-103 could inhibit metastatic melanoma in the lung thus prevent secondary tumorigenesis. Firstly, 12 normally immunocompetent mice (C57BL/6, female, 6-8 weeks) were randomly selected and injected via the tail vein with 3000 tumor-repopulating cells of melanoma to establish a metastatic melanoma model in the mouse. The model mice were randomly divided into two groups which were respectively the treatment group and the negative control group. The mice were administered with WYC-103 (the treatment group) and DMSO (the negative control group) via tail vein injection once every 2 days at a blood concentration of 10 μM based on the body weight and the blood volume of the mice.

[3] = system: subcutaneous implantation tumor of B16-F1 melanoma; experiment: Subcutaneous implantation model of B16-F1 melanoma in immunocompetent mice; format: in vivo, mice (C57BL/6)
Experimental: A subcutaneous implantation model of B16-F1 melanoma in immunocompetent mice (C57BL/6, female, 6-8 weeks) was established to study the inhibitory activity of compound WYC-103 on the tumor in situ. Firstly, B16-F1 cells were incubated within 3D fibrin gel (90-Pa in gel stiffness) that was immersed in culture medium for 5 days, and the desired tumor-repopulating cells were screened. Subsequently, the culture medium was respectively treated with collagenase and neutral protease II, and the tumor-repopulating cells of B16-F1 melanoma were released, then the obtained repopulating cells were transferred to a freshly prepared medium to be re-suspended and maintained at single-cell state.
Six immunocompetent mice were randomly divided into two groups which were respectively the treatment group and the DMSO negative control group. Mice were subcutaneously injected with 30,000 tumor-repopulating cells of melanoma to establish a subcutaneous implantation model of melanoma. Subsequently, Mice were administered via tail vein injection based on the body weight and the blood volume of the mice. From day 0, mice in the treatment group were administrated with WYC-103 once every 2 days at a blood concentration of 10 μM and fed normally, observing the survival of the mice. […] According to the statistical analysis, the tumor volume in the treatment group was only 50% of the control group (FIG. 12).
This experiment was repeated in order to further confirm the inhibitory activity of WYC-103 on subcutaneous implantation tumor of B16-F1 melanoma. In the present experiment, 18 immunocompetent mice (C57BL/6, female, 6-8 weeks) were randomly divided into three groups which were respectively the treatment group, the positive control group (BMS-453 was used as the positive drug) and the DMSO negative control group. Subsequently, Mice were administered via tail vein injection based on the body weight and the blood volume of the mice. From day 0, mice in the treatment group were administrated with WYC-103 once every 2 days at a blood concentration of 10 μM; mice in the positive control group were administered with BMS-453 (WYC-114) as the positive drug in the same route of administration; mice in the negative control group was administered with 0.1% DMSO in a same route of administration.

[4] = system: B16-F1 melanoma cells; experiment: In vitro effect on B16-F1 melanoma cells (proliferation, apoptosis) in the toxicity study; format: cell-based; settings: 10 μM
Experimental: (§1) The 3T3 mouse embryonic fibroblast cells and B16-F1 melanoma cells were used as the model to study in vitro toxicity of WYC-209 and WYC-331 respectively. The effect of compound WYC-209 and WYC-331 on the proliferation of 3T3 mouse embryonic fibroblast cells and B16-F1 melanoma cells were studied at a concentration of 10 μM.

[5] = system: 3T3 mouse embryonic fibroblast cells; experiment: In vitro toxicity on normal cells (proliferation, apoptosis); format: cell-based; settings: 10 μM
Experimental: as §1

[6] = system: tumor-repopulating cells of A2780 ovarian cancer; experiment: Inhibition of proliferation of tumor-repopulating cells, colony tumor volume in 3D fibrin gel; format: cell-based, human; settings: A2780 TRCs, 10 μM
Experimental: (§2) Therefore, we further studied the inhibitory activity of this compound against tumor-repopulating cells of six other kinds of human tumor, including A549 lung cancer cell, MCF-7 breast cancer cell, MDA-MB-435S melanoma cell, A2780 ovarian cancer cell, Hs-746T gastric cancer cell, MDA-MB-231 breast cancer cell.
(§3) The above cancer cells were incubated with 3D fibrin gel medium (90-Pa) for 5 days, and the desired tumor-repopulating cells were screened. Subsequently, the culture medium was respectively treated with collagenase and neutral protease II, and the tumor-repopulating cells of B16-F1 melanoma were released, then the obtained repopulating cells were transferred to a freshly prepared medium to be resuspended and maintained at single-cell state. The tumor-repopulating cells of individual tumor were inoculated in 3D fibrin gel medium (90-Pa) for 5 days, with 0.1% DMSO as the negative control group (represented by DMSO group in FIGS. 3-8), the drug-free group as vehicle control group (represented by None group in FIGS. 3-8), and the study was performed by beginning administrating on the day 0 and the 3rd day respectively, and the colony tumor volume was measured and calculated.
as §3, with “The above human tumor cells were” for “The above cancer cells were”, “cells of B16-F1 melanoma were inoculated” for “cells of individual tumor were inoculated”, “group in FIG. 9), the drug-free” for “group in FIGS. 3-8), the drug-free”, “measured and calculated, beginning administrating from the 3rd day at a concentration of 0.1 μM, 1.0 μM, and 10 μM respectively, the colony tumor volume was measured and calculated.” for “measured and calculated.”

[7] = system: tumor-repopulating cells of MDA-MB-231 breast cancer; experiment: as above; format: cell-based, human; settings: MDA-MB-231 TRCs
Experimental: as §2, §3
as §3, with “The above human tumor cells were” for “The above cancer cells were”, “cells of B16-F1 melanoma were inoculated” for “cells of individual tumor were inoculated”, “group in FIG. 9), the drug-free” for “group in FIGS. 3-8), the drug-free”, “measured and calculated, beginning administrating from the 3rd day at a concentration of 0.1 μM, 1.0 μM, and 10 μM respectively, the colony tumor volume was measured and calculated.” for “measured and calculated.”

[8] = B16-F1, 120 h, 10 μM, incubated 5 days, colony tumor size, read-out: Inhibition rate on TRCs of B16-F1 melanoma at a concentration of 10 μM (%)
[9] = B16-F1, 10 μM (Table 3), read-out: Inhibition rate on TRCs of B16-F1 melanoma at a concentration of 10 μM/%

SMILES | inhibition at 10 µM [1, 8] | inhibition at 10 µM [1, 9] | average lung weight relative to the negative control group [2] | toxic side effects ([2]; whole experiment) | efficiency of preventing the occurrence of metastatic melanoma in the lung ([2]; tail vein injection every 2 days) | tumor volume in the treatment group relative to the control group ([3]; first experiment, after 19 days, tail vein injection every 2 days, blood concentration 10 μM) | body weight of the mice ([3]; mouse, in vivo) | dissection of peritoneal/abdominal cavity ([3]; mouse, in vivo) | toxic side effects ([3]; mouse, in vivo) | tumor volume in the treatment group relative to the negative control group ([3]; repeated experiment, 26th day, tail vein injection every 2 days, blood concentration 10 μM) | mice died ([3]; repeated experiment, on the 26th day) | effect on proliferation of B16-F1 melanoma cells [4] | induction of apoptosis of B16-F1 melanoma cells [4] | effect on proliferation of 3T3 mouse embryonic fibroblast cells [5] | induction of apoptosis of 3T3 mouse embryonic fibroblast cells [5] | IC50 ([1]; B16-F1, dose-response curve, colony tumor volume, read-out: IC50 of inhibition on TRCs of B16-F1 melanoma/μM) | volume of colony tumor relative to None group [6] | growth trend of colony tumor [7] | volume of colony tumor relative to None group ([7]; 10 μM)
CCOC(=O)c1ccc(C#Cc2ccc3c(c2)C(C)(C)CCS3)cc1O [WYC-103, ethyl 4-((4,4-dimethylthiochroman-6-yl)ethynyl)-2-hydroxybenzoate] | 86.8% | 86.8% | ⅓ | no obvious toxic side effects | 100% | 50% | stable and balanced | No abnormalities | no obvious toxic side effects | 50% | 50% |  |  |  |  |  |  |  | 
CCOC(=O)c1cnc(C#Cc2ccc3c(c2)C(C)(C)CCC3(C)C)nc1 [WYC-331, ethyl 2-((5,5,8,8-tetramethyl-5,6,7,8-tetrahydronaphth-2-yl)ethynyl)pyrimidin-5-carboxylate] | 96% | 96% |  |  |  |  |  |  |  |  |  | strongly inhibited the proliferation | did not exhibit significant apoptosis-inducing effect | no effect on the growth of 3T3 cell clones | did not exhibit significant apoptosis-inducing effect; also recorded: could not induce apoptosis | 0.017 µM | 10-15% | reverse the growth trend of colony tumor | 10-15%
